From patent publication US20230047825A1, “ANTIMICROBIAL PEPTIDES” (priority 2019, published 2023)
In brackets after ≈: the same amount, converted by molar mass. Read-outs that look alike come from different tables or passages of the source. Where a SMILES comes first, the peptide text is derived from it.

Experiments:
[1] = test system: Pseudomonas aeruginosa PA01; assay: Antibacterial activity assay (broth microdilution MIC); type: cell-based
[2] = test system: Pseudomonas aeruginosa NCTC 13437; assay: as above; type: cell-based; details: PA13437, in µg/mL
[3] = test system: MS Staphylococcus aureus ATCC 9144; type: cell-based; details: MSSA9144
[4] = test system: EMR Staphylococcus aureus-15 (EMRSA-15); type: cell-based; details: for MIC, Peptide concentration: Mueller-Hinton broth
[5] = test system: VR Enterococcus faecium NCTC 12204; assay: Antibacterial activity assay (broth microdilution MIC); type: cell-based; details: VRE12204, in µg/mL
P. aeruginosa RP73 = assay: as above; type: cell-based, Pseudomonas aeruginosa; details: in µg/mL
Experimental: Antibacterial activity assay.
Synergy experiments were performed following a checkerboard protocol.

HEK293 = assay: Cytotoxicity assay (XTT); type: cell-based, human
Procedure, shortened: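 Cells seeded 24 h in EMEM with 10% FBS and NEAA at 37 °C, 10% CO2, then medium replaced with peptide dilutions. After a further 24 h exposure, viability read by XTT tetrazolium staining.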

A549 = assay: Cytotoxicity assay; type: cell-based; details: value printed in parentheses
Calu-3 = assay: Cytotoxicity assay; type: cell-based; details: value printed in parentheses
[6] = test system: Staphylococcus aureus ATCC 19636 (Smith); assay: microbe, parasite or virus in culture; details: ATCC 19636
Experimental: (§1) The S. aureus strains ATCC 29213, ATCC 19636, ATCC 33591 (MRSA), BAA-1556 (MRSA USA 300) were obtained from the American Type Culture Collection (ATCC). […] The species identity was confirmed with 16S rRNA analysis.
(§2) Two broth mediums were used, Mueller Hinton Broth and RPMI 1640+5% fetal bovine serum. Test substances were evaluated in 11-point titrations and performed in duplicate.
(§3) The direct colony suspension method was used to prepare inoculated broth. Isolated colonies were taken from an 18-24 h culture plate. Optical density measurements (OD620nm) were used to estimate the bacterial density. […] The stock solutions were diluted by 2-fold serial titrations with their respective vehicles for a total of 11 concentrations.
(§4) A 4 μL aliquot of each dilution was added to 196 μL of broth medium seeded with the organism in wells of a sterilized 96 well polypropylene plate (Nunc™ 249949) using aluminum foil as cover. The final bacterial count was 2 to 8×10^5 CFU/mL. […] The final test article concentration range was 32 to 0.0313 μg/mL.
(§5) Each test substance dilution was evaluated in duplicate on one test occasion. […] Plates were incubated at 35-37° C. for 18 h. The test plates were visually examined and each well was visually scored for growth or complete inhibition of growth. The MIC value was recorded.

[7] = test system: Staphylococcus aureus ATCC 29213; assay: microbe, parasite or virus in culture; details: ATCC 29213
Experimental: as §1, §2, §3, §4, §5

[8] = test system: Staphylococcus aureus ATCC 33591 (MRSA); assay: microbe, parasite or virus in culture; details: ATCC 33591
Experimental: as §1, §2, §3, §4, §5

[9] = test system: Staphylococcus aureus ATCC BAA-1556 (USA300, MRSA); assay: microbe, parasite or virus in culture; details: ATCC BAA-1556
Experimental: as §1, §2, §3, §4, §5

[10] = test system: Staphylococcus aureus VRS-2 (VanA, VRSA); assay: microbe, parasite or virus in culture; details: VRS-2 (VanA)
Experimental: as §1, §2, §3, §4, §5

[11] = untitled table, medium/unit not given, values match RPMI of Table 2

With `CC(C)C[C@@H](NC(=O)[C@@H](Cc1ccc(O)cc1)NC(=O)[C@@H](Cc1c[nH]cn1)NC(=O)[C@H](NC(=O)[C@@H](CC(C)C)NC(=O)[C@@H](C)NC(=O)[C@@H](C)NC(=O)[C@@H](CCCNC(=N)N)NC(=O)CNC(=O)[C@H](NC(=O)[C@@H](Cc1c[nH]cn1)NC(=O)[C@@H](CCCNC(=N)N)NC(=O)CNC(=O)[C@H](NC(=O)[C@@H](Cc1c[nH]cn1)NC(=O)[C@@H](C)NC(=O)[C@@H](C)NC(=O)[C@@H](CCCNC(=N)N)NC(=O)[C@@H](CCCNC(=N)N)NC(=O)[C@@H](Cc1ccccc1)NC(=O)[C@@H](Cc1ccccc1)NC(=O)[C@@H](CO)NC(=O)CNC(=O)[C@@H](Cc1c[nH]c2ccccc12)NC(=O)CN)C(C)C)C(C)C)[C@H](C)O)C(N)=O` [D-pleurocidin-KR] (HELM PEPTIDE1{G.[dW].G.[dS].[dF].[dF].[dR].[dR].[dA].[dA].[dH].[dV].G.[dR].[dH].[dV].G.[dR].[dA].[dA].[dL].[dT].[dH].[dY].[dL].[am]}$$$$V2.0; N-terminus assumed) the “MIC, Stability in serum (MH)” value ([1]; No serum, in µg/mL) was 4, the “MIC, Stability in serum (MH)” value ([1]; Serum (10% fetal bovine serum), in µg/mL) was 4 and the “MIC on initial panels” value ([1]; medium and unit not given, in µg/mL) was 4. The MIC ([1]; untitled table, medium/unit inferred, values match RPMI of Table 2) was 16 µg/mL (≈ 5.67 µM), the “MIC, Stability in serum (MH)” value ([2]; No serum) was 4 and the “MIC, Stability in serum (MH)” value ([2]; Serum (10% fetal bovine serum)) was 8. For the same molecule, the “MIC on initial panels” value ([2]; medium and unit not given) was 4, the MIC [2, 11] was 16 and the MIC on initial panels ([3]; medium and unit inferred) was 2 µg/mL (≈ 0.709 µM). For the same molecule, the MIC ([3]; untitled table, medium/unit not given, values match RPMI of Table 2, in µg/mL) was 0.25-0.5, the MIC on initial panels ([4]; EMRSA15, medium and unit inferred) was 2 µg/mL (≈ 0.709 µM) and the MIC ([4]; EMRSA15, untitled table, medium/unit inferred, values match RPMI of Table 2) was 0.5 µg/mL (≈ 0.177 µM). The “MIC, Peptide concentration” value [4] was 2 µg/mL (≈ 0.709 µM), the “MIC, Peptide concentration” value ([4]; listed as D-PLEUROCIDIN-KR) was 4 µg/mL (≈ 1.42 µM) and the “MIC on initial panels” value ([5]; medium and unit not given) was 2. The MIC [5, 11] was 2, the “MIC on initial panels” value (P. aeruginosa RP73; medium and unit not given) was 16 and the MIC (P. aeruginosa RP73; untitled table, medium/unit not given) was 33. For the same molecule, the “Toxicity HEK293” value (HEK293; unit not given) was 36.4 ± 4.3, the “Toxicity HEK293 (EC50), Peptide concentration” value (HEK293; value printed in parentheses) was “(36.4 ± 4.3) μg/ml” and the “Toxicity A549 (EC50), Peptide concentration” value (A549) was “(56.5 ± 4.5) μg/ml”. For the same molecule, the “Toxicity Calu-3 (EC50), Peptide concentration” value (Calu-3) was “(39.1 ± 1.8) μg/ml”, the MIC [6] was 2 µg/mL (≈ 0.709 µM) and the MIC [7] was 2 µg/mL (≈ 0.709 µM). The MIC [8] was 2 µg/mL (≈ 0.709 µM), the MIC [9] was 2 µg/mL (≈ 0.709 µM) and the MIC [10] was 2 µg/mL (≈ 0.709 µM).
